According to publication PMC7955127, “Preclinical small molecule WEHI-7326 overcomes drug resistance and elicits response in patient-derived xenograft models of human treatment-refractory tumors” (Cell Death & Disease, 2021):

What was measured:
porcine tubulin = experiment: Tubulin in vitro polymerization assay (fluorescence-based, BK011P); format: biochemical; details: purified tubulin
Protocol: A commercial fluorescence-based tubulin polymerization assay (Cytoskeleton, Denver, CO; Cat. # BK011P) was used as per manufacturer’s instructions for detection of tubulin polymerization inhibitors. Briefly, porcine tubulin (3 mg/ml tubulin in 80 mM PIPES pH 7.0, 0.5 mM EGTA, 2 mM MgCl2, 1 mM GTP and 10% glycerol) was incubated at 37 °C with either vehicle control (DMSO), with Paclitaxel or antimitotic compound. Each condition was tested in duplicate. Polymerization was measured over time by excitation at 360 nm and emission at 420 nm in a temperature controlled 96-well plate fluorimeter (Envision 2105, Perkin-Elmer, Waltham, MS) equipped with filters for excitation at 340–360 nm and emission at 420–450 nm.

PC3 = experiment: Cell growth inhibition assay, PC3; format: cell-based; details: Homo sapiens, PC-3; PC3, prostate carcinoma; 72 h viability assay, CellTiterGlo; mean of 3 ± SEM; read-out: IC50 (inhibition of cellular proliferation)
Protocol: Cells were plated at a density of between 500 to 5000 cells per well for adherent cell lines depending on doubling time, and 15,000 cells per well for lymphoblastic leukemia cell lines, in a 96-well plate in 200 μl of growth media. Plates were incubated overnight at 37 °C before adding the inhibitors. Inhibitors were serially diluted from the stock solutions in complete medium and added to the cells. Incubation in the presence of inhibitors was continued for […]. Cell viability was assessed by the AlamarBlue (Invitrogen) or CellTiterBlue/Glo (Promega) method according to manufacturer’s instructions. The curve fits and IC50 values were generated in PRISM (GraphPad, San Diego, CA).

134183 HGSOC PDX = experiment: HGSOC PDX model 134183; format: in vivo, NSG mice; details: 134183 platinum-sensitive PDX; 20 mg/kg i.v. biweekly, 6 weeks
Protocol: (§1) Two to three mm ovarian tumor fragments were subcutaneously engrafted in the left flank of NSG mice and monitored by physical palpation for tumor growth and engraftment. Engrafted tumors were measured twice a week using digital Vernier calipers and maximum tumor diameter + perpendicular tumor length were digitally recorded into the Study Director software (v 3.0/4.0 StudyLog). Tumor volume was calculated automatically (tumor volume (mm^3) = 0.5236 x [larger diameter (mm) x smaller diameter (mm)^2]). Mice were randomized to treatment once their tumor volume reach 180–300 mm^3 and tumor measurements were performed twice a week up to 120 days or when the tumor volume reaches 700 mm^3.
(§2) Time to progressive disease (PD): Defined as the time (in days) from beginning of treatment to an increase in average tumor volume of >20% from the nadir (taken as the smallest average tumor volume recorded since treatment started or 200 mm^3 if nadir was <200 mm^3 as lesions smaller than this are difficult to measure with accuracy). Median time to harvest (TTH): Defined as the time (in days) from the beginning of treatment to day of harvest at 700 mm^3 and the median TTH was calculated and plotted using Kaplan-Meier curves. Based on ref. [27]. […]

[1] = system: MDA-MB-231 LNA DRE (docetaxel resistant breast cancer) xenograft; experiment: Orthotopic MDA-MB-231 LNA-DRE xenograft; format: in vivo, Balb/c nude mice; details: docetaxel 10 mg/kg weekly i.v., WEHI-7326 30 mg/kg biweekly i.v.
Protocol: LoVo (4 × 10^6), PC3 (3 × 10^6) or MDA-MB-231 LNA DRE (10^6) cells were collected by trypsination and injected with 50 μl 1:1 PBS:Matrigel (v/v) subcutaneously on the right flank of 18 female (LoVo), 40 male (PC3) or into 4th mammary fat pad of 40 female (MDA231) Balb/c nude mice. Tumor growth was monitored and average tumor size at commencement of dosing was 100 mm^3. Mice were randomized into 3 arms of each 5 (LoVo), 10 (PC3) or 12 (MDA23) mice respectively and treatment with vehicle (saline), WEHI-7326 (biweekly) or docetaxel (weekly) was administered via tail vein injection. Tumor volumes were measured at least twice weekly with calipers and the experiments were terminated when tumors in the control group started exceeding 1500 mm^3. For LoVo, both vehicle and 25 mg/kg WEHI-7326 groups were harvested 24 h, but 20 mg/kg WEHI-7326 group harvested 1 h post final dose. For PC3, docetaxel group was not harvested in an attempt to grow out resistant tumors.

34931 HGSOC PDX = experiment: HGSOC post-chemo PDX model 34931; format: in vivo, NSG mice; details: 34931 post-taxane, cisplatin-refractory PDX; 20 mg/kg i.v. twice a week, 6 weeks
Protocol: as §1, §2

With `COc1ccc(CNc2nc(NCc3ccc(CN)cc3)nc(NN3CC(=O)NC3=O)n2)cc1` [WEHI-7326] the “Effect on in vitro tubulin polymerization” value (porcine tubulin; 50 μM) was “markedly slowed tubulin polymerization”, the “Effect on in vitro tubulin polymerization rates” value (porcine tubulin; concentrations up to 15 μM, vs vehicle) was “did not affect” and the IC50 (PC3) was 0.0489 ± 0.0111 µM. For the same compound, the “Median time to harvest (TTH)” value (134183 HGSOC PDX) was “lack of improvement”, the “Time to progressive disease (PD)” value (134183 HGSOC PDX) was 53 days and the “Tumor growth inhibition (TGI)” value [1] was 105%. For the same compound, the Tumor response (34931 HGSOC PDX) was “ineffective”.
